Consider 45 compounds from patent US11555012B2 (Nimbus Artemis, Inc., priority 2018, dated 2023).

Usually IC50 stands for the concentration that gives 50% inhibition.

A value given as a limit tells only on which side of the number the result lay.

The target of the experiment is ACL (Homo sapiens (Human), UniProt P53396). The experiment is described as follows: ADP-Glo Assay. In general terms: ADP-Glo turns the ADP formed in a reaction into a luminescent signal.
ACL, sequence (P53396 other isoform, or with tags, fused parts or gaps isoform P53396-2): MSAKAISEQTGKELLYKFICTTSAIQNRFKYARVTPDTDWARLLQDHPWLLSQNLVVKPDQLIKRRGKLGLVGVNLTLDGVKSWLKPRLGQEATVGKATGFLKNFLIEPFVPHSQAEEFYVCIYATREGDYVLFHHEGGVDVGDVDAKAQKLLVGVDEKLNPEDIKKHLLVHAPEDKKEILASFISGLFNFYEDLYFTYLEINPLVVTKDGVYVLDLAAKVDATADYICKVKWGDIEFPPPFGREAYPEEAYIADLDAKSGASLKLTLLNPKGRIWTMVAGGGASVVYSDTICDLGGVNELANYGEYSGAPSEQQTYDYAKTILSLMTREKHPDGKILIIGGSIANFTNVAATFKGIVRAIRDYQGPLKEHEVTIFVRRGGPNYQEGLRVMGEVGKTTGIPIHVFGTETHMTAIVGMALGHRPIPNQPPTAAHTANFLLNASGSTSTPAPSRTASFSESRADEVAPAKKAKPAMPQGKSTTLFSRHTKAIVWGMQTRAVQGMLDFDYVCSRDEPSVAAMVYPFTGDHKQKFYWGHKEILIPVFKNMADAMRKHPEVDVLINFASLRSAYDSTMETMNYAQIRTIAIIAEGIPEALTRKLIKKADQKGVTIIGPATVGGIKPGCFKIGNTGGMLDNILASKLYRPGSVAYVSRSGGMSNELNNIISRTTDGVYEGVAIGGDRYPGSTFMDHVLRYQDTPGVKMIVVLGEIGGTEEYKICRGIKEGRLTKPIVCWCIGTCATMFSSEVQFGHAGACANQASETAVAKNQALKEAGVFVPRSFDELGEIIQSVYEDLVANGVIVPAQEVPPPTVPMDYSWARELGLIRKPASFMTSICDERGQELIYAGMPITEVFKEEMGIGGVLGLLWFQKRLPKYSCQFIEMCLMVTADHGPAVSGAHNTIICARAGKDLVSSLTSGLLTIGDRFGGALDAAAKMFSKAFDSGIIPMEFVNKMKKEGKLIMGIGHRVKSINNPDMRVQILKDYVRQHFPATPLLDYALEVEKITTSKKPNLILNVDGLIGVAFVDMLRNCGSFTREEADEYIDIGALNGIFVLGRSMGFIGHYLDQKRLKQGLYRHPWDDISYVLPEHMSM
Turning to `CCS(=O)(=O)Nc1cc(OC)ccc1S(=O)(=O)Nc1cc(-c2ccccc2)ccc1F` [I-254], the IC50 was in the range of 0.5 to 20 µM.
As for `O=S(=O)(Nc1cc(-c2ccccc2)ccc1F)c1cc(Cl)cc(Cl)c1Oc1nccs1` [I-97, 3,5-dichloro-N-(2-fluoro-5-phenylphenyl)-2-(1,3-thiazol-2-yloxy)benzene-1-sulfonamide], the IC50 is 0.5 to 20 µM.
The value for `COC(=O)c1ccc(F)c(NS(=O)(=O)c2cc(Cl)cc(Cl)c2O)c1` [I-43, Methyl 3-((3,5-dichloro-2-hydroxyphenyl)sulfonamido)-4-fluorobenzoate] was 0.5 to 20 µM; that for `COc1ccc(-c2ccccc2)cc1NS(=O)(=O)c1cc(Cl)cc(C#N)c1` [I-422, 3-chloro-5-cyano-N-(2-methoxy-5-phenylphenyl)benzene-1-sulfonamide] was more than 20 µM; that for `CC(C)(C)OC(=O)COc1ccc(-c2ccccc2)cc1NS(=O)(=O)c1cc(Cl)cc(Cl)c1O` [I-214, tert-butyl 2-[[3-(3,5-dichloro-2-hydroxybenzenesulfonamido)-[1,1-biphenyl]-4-yl]oxy]acetate] was 0.5 to 20 µM.
The value for `O=C(O)c1ccc(-c2ccccc2)cc1NS(=O)(=O)c1ccccc1` [I-225, 3-(phenylsulfonamido)-[1,1′-biphenyl]-4-carboxylic Acid] was 0.5 to 20 µM; that for `COc1ccc(-c2ccccc2)cc1NS(=O)(=O)c1cc(Cl)cc(Cl)c1C(=O)O` [I-398, 2,4-dichloro-6-(N-(4-methoxy-[1,1′-biphenyl]-3-yl)sulfamoyl) Benzoic Acid] was more than 20 µM; that for `N#Cc1cc(S(=O)(=O)Nc2cc(-c3ccccc3)ccc2F)ccc1Cl` [I-251] was 0.5 to 20 µM.
The value for `CN(c1cc(-c2ccccc2)ccc1F)S(=O)(=O)c1cc(Cl)cc(Br)c1O` [I-370, 3-bromo-5-chloro-N-(4-fluoro-[1,1′-biphenyl]-3-yl)-2-hydroxy-N-methylbenzenesulfonamide] was 0.5 to 20 µM.
`COc1ccc(-c2ccccc2)cc1NS(=O)(=O)c1cc(C(=O)O)ccc1Cl` [I-438, 4-chloro-3-[(2-methoxy-5-phenylphenyl)sulfamoyl]benzoic acid]: the IC50 was more than 20 µM.
The value for `COc1ccc(F)cc1S(=O)(=O)Nc1cc(-c2ccccc2)ccc1C(=O)O` [I-315, 3-((5-fluoro-2-methoxyphenyl)sulfonamido)-[1,1′-biphenyl]-4-carboxylic Acid] was 0.5 to 20 µM; that for `COc1ccc(-c2ccccc2)cc1NS(=O)(=O)c1cc(Cl)cc(Cl)c1` [I-405, 3,5-dichloro-N-(4-methoxy-[1,1′-biphenyl]-3-yl)benzenesulfonamide] was more than 20 µM; that for `O=S(=O)(Nc1cc(-c2ccccc2)ccc1F)c1cc(Cl)cc(Cl)c1F` [I-207, 3,5-dichloro-2-fluoro-N-[4-fluoro-[1,1-biphenyl]-3-yl]benzene-1-sulfonamide] was 0.5 to 20 µM.
The compound `O=S(=O)(NC1CCN(c2ccccc2)C1)c1cc(Cl)cc(Cl)c1O` (stereo not drawn) [I-183] had an IC50 of 0.5 to 20 µM.
The value for `O=C(O)c1ccccc1NS(=O)(=O)c1cc(Cl)cc(Cl)c1` [I-522, 2-((3,5-dichlorophenyl)sulfonamido)benzoic acid] was more than 20 µM; that for `O=C(O)c1ccc(NS(=O)(=O)c2cc(Cl)cc(Cl)c2O)cc1Cl` [I-412, 2-chloro-4-[(3,5-dichloro-2-hydroxybenzene)sulfonamido]benzoic acid] was more than 20 µM.
For `COc1ccc(-c2ccccc2)cc1NS(=O)(=O)c1cc(-c2nn[nH]n2)cc(Cl)c1OC` [I-71, 3-chloro-2-methoxy-N-(2-methoxy-5-phenylphenyl)-5-(2H-1,2,3,4-tetrazol-5-yl)benzene-1-sulfonamide], the IC50 is 0.5 to 20 µM.
`O=S(=O)(Nc1cc(-c2ccccc2)c(F)cc1F)c1cccc2ccccc12` [I-376, N-(4,6-difluoro-[1,1 biphenyl]-3-yl)naphthalene-1-sulfonamide] had an IC50 of more than 20 µM.
The value for `O=S(=O)(Nc1cc(-c2ccccc2)c(F)cc1F)c1cc(Cl)cc(Br)c1` [I-246, 3-bromo-5-chloro-N-(4,6-difluoro-[1,1′-biphenyl]-3-yl)benzenesulfonamide] was 0.5 to 20 µM.
The value for `COc1ccc(-c2ccccc2)cc1NS(=O)(=O)c1cc(Cl)cc(C(=O)O)c1O` [I-3, 5-chloro-2-hydroxy-3-(N-(4-methoxy-[1,1′-biphenyl]-3-yl)sulfamoyl)benzoic Acid] was 0.5 to 20 µM; that for `O=C(O)c1ccc(-c2ccccc2)cc1NS(=O)(=O)c1cccc(C(F)(F)F)n1` [I-312, 3-((6-(trifluoromethyl)pyridine)-2-sulfonamido)-[1,1′-biphenyl]-4-carboxylic Acid] was 0.5 to 20 µM.
The value for `O=S(=O)(Nc1sccc1-c1ccccc1)c1cc(Cl)cc(Cl)c1O` [I-89, 3,5-dichloro-2-hydroxy-N-(3-phenylthiophen-2-yl) benzenesulfonamide] was 0.5 to 20 µM.
`COC(=O)c1cc(Cl)c(OC)c(S(=O)(=O)Nc2cc(-c3ccccc3)ccc2OC)c1` [I-428, Methyl 3-chloro-4-methoxy-5-(N-(4-methoxy-[1,1′-biphenyl]-3-yl)sulfamoyl)benzoate] came in with an IC50 of more than 20 µM.
In the case of `O=S(=O)(Nc1cc(-c2ccccc2)ccc1F)c1cccc2cc[nH]c12` [I-377, N-[4-fluoro-[1,1-biphenyl]-3-yl]-1H-indole-7-sulfonamide] it was more than 20 µM; in that of `O=C(O)c1cc(Cl)ccc1NS(=O)(=O)c1cc(Cl)cc(Cl)c1` [I-343, 5-chloro-2-((3,5-dichlorophenyl)sulfonamido)benzoic Acid], 0.5 to 20 µM.
In the case of `O=C(O)c1ccc(-c2ccccc2)cc1NS(=O)(=O)c1ccc(C(F)(F)F)cc1` [I-353, 3-((4-(trifluoromethyl)phenyl)sulfonamido)-[1,1′-biphenyl]-4-carboxylic acid] it was 0.5 to 20 µM; in that of `O=S(=O)(Nc1cc(F)cc(N2CCOCC2)c1)c1cc(Cl)cc(Cl)c1O` [I-182], 0.5 to 20 µM.
In the case of `COC(=O)COc1c(Cl)cc(Cl)cc1S(=O)(=O)Nc1cc(-c2ccccc2)c(F)cc1F` [I-79, Methyl 2-[2,4-dichloro-6-[(2,4-difluoro-5-phenylphenyl)sulfamoyl]phenoxy]acetate] it was 0.5 to 20 µM; in that of `COc1c(Cl)cc(C(=O)N2CCC2)cc1S(=O)(=O)Nc1cc(-c2ccccc2)c(F)cc1F` [I-378, 5-(azetidine-1-carbonyl)-3-chloro-N-[4,6-difluoro-[1,1-biphenyl]-3-yl]-2-methoxybenzene-1-sulfonamide], more than 20 µM; in that of `Cc1ccc(C(=O)O)c(NS(=O)(=O)c2cc(Cl)cc(Cl)c2)c1` [I-321, 2-((3,5-dichlorophenyl)sulfonamido)-4-methylbenzoic Acid], 0.5 to 20 µM.
`Cn1cc(Cl)cc(S(=O)(=O)Nc2cc(-c3ccccc3)ccc2F)c1=O` [I-415, 5-chloro-N-(2-fluoro-5-phenylphenyl)-1-methyl-2-oxo-1,2-dihydropyridine-3-sulfonamide] had an IC50 of more than 20 µM.
The value for `O=C(O)c1cc(Br)cc(S(=O)(=O)Nc2cc(-c3ccccc3)ccc2C(=O)O)c1` [I-303, 3-((3-bromo-5-carboxyphenyl)sulfonamido)-[1,1′-biphenyl]-4-carboxylic Acid] was 0.5 to 20 µM; that for `COC(=O)c1ccc(-c2ccccc2)cc1NS(=O)(=O)c1cc(Cl)cnc1O` [I-346, methyl 3-((5-chloro-2-hydroxypyridine)-3-sulfonamido)-[1,1′-biphenyl]-4-carboxylate] was 0.5 to 20 µM; that for `COc1ccc(-c2ccccc2)cc1N(C)S(=O)(=O)c1cc(Cl)cc(Cl)c1OC` [I-401, 3,5-dichloro-2-methoxy-N-(4-methoxy-[1,1′-biphenyl]-3-yl)-N-methylbenzenesulfonamide] was more than 20 µM.
The value for `COc1ccc(-c2ccccc2)cc1NS(=O)(=O)c1c(C)nn(C)c1Cl` [I-400, 5-chloro-N-(4-methoxy-[1,1′-biphenyl]-3-yl)-1,3-dimethyl-1H-pyrazole-4-sulfonamide] was more than 20 µM; that for `CC(C)(C)OC(=O)COc1c(Cl)cc(C(=O)N2CCC2)cc1S(=O)(=O)Nc1cc(-c2ccccc2)c(F)cc1F` [I-387, tert-butyl 2-[4-(azetidine-1-carbonyl)-2-chloro-6-([4,6-difluoro-[1,1-biphenyl]-3-yl]sulfamoyl)phenoxy]acetate] was more than 20 µM.
The value for `O=S(=O)(Nc1cc(-c2ccccc2)c(F)cc1F)c1cccc(Cl)c1Cl` [I-190, 2,3-dichloro-N-[4,6-difluoro-[1,1-biphenyl]-3-yl]benzene-1-sulfonamide] was 0.5 to 20 µM; that for `COc1ccc(-c2ccccc2)cc1NS(=O)(=O)c1ccc(O)c(Cl)c1` [I-416, 3-chloro-4-hydroxy-N-(2-methoxy-5-phenylphenyl)benzene-1-sulfonamide] was more than 20 µM.
Take `COc1ccc(-c2ccccc2)cc1NS(=O)(=O)c1cc(-c2nn[nH]n2)ccc1OC` [I-442, 2-methoxy-N-(2-methoxy-5-phenylphenyl)-5-(2H-1,2,3,4-tetrazol-5-yl)benzene-1-sulfonamide]: the IC50 is more than 20 µM.
In the case of `COC(=O)c1cccc(S(=O)(=O)Nc2cc(-c3ccccc3)ccc2OC)c1` [I-421, methyl 3-(N-(4-methoxy-[1,1′-biphenyl]-3-yl)sulfamoyl)benzoate] it was more than 20 µM.
In the case of `COc1cccc(CCNS(=O)(=O)c2cc(Cl)cc(Cl)c2O)c1` [I-188] it was 0.5 to 20 µM.
Compound `CC(C)(CNS(=O)(=O)c1cc(Cl)cc(Cl)c1O)c1cccs1` [I-173] gave an IC50 of 0.5 to 20 µM.
As for `CN(C)C(=O)Oc1c(Cl)cc(C(=O)N2CCC2)cc1S(=O)(=O)Nc1cc(-c2ccccc2)c(F)cc1F` [I-209, 4-(azetidine-1-carbonyl)-2-chloro-6-([4,6-difluoro-[1,1-biphenyl]-3-yl]sulfamoyl)phenyl N,N-dimethylcarbamate], the IC50 is 0.5 to 20 µM.
In the case of `O=S(=O)(Nc1cc(N2CCNCC2)c(F)cc1F)c1cc(Cl)cc(Cl)c1O` [I-395, 3,5-dichloro-N-(2,4-difluoro-5-(piperazin-1-yl)phenyl)-2-hydroxybenzenesulfonamide] it was more than 20 µM.
In the case of `O=S(=O)(Nc1cc(-c2ccccc2)c(F)cc1F)c1cc(Cl)cc(-c2nn[nH]n2)c1` [I-72, 3-chloro-N-(2,4-difluoro-5-phenylphenyl)-5-(2H-1,2,3,4-tetrazol-5-yl)benzene-1-sulfonamide] it was 0.5 to 20 µM.
